Test results taken from patent US5891892A, “Small molecule biaryl compounds as inhibitors of endothelin converting enzyme” (Warner-Lambert Company, priority 1997, dated 1999).
Read-outs that look alike come from different tables or passages of the source. Each block holds one compound with its values, some of them ahead of it. Non-standard residues stand in square brackets, D forms with d. Residues, ends and D or L forms follow the SMILES beside them. No end group written: not given here.

Columns and labels:
[1] = molecular target: T1, human ECE-1 (Homo sapiens, UniProt P42892); test: ECE-1 Assay (ET-1 formed from big ET-1, by Elisa); type: biochemical; details: solubilized membrane fraction of CHO/human ECE-1 cells, 0.1 μM big ET-1, pH 7.0, 1 hour at 37° C.
T1 construct: expressed in transfected cells
T1 sequence (P42892 1-770): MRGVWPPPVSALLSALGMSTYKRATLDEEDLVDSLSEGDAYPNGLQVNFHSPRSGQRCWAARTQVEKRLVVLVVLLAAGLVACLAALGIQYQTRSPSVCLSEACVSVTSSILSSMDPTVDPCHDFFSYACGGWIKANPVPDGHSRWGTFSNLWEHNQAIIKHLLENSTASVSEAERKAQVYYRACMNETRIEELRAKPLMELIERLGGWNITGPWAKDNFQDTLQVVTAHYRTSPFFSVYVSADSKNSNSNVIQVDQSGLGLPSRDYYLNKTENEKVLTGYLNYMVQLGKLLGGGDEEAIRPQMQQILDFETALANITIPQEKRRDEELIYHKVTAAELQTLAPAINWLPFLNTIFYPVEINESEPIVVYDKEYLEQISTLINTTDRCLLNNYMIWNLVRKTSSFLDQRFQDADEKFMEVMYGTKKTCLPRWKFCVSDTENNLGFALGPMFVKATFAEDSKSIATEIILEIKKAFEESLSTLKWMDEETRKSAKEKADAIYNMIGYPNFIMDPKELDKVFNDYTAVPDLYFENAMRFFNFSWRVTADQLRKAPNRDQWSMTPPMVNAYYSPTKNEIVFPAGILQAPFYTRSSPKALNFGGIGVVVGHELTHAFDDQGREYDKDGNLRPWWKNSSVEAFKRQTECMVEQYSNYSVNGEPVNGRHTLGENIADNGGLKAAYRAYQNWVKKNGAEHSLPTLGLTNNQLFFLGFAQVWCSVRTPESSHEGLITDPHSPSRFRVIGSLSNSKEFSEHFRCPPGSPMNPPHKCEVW
Procedure: All cells were grown in a humidified incubator at 37° C. in an atmosphere of 5% CO2/95% air. The membrane fractions from CHO cells were prepared as described in (Cell 1994; (78):473-485). ECE-1 Assay […] The final concentration of DMSO was 1.5%. […] This final mixture was then directly analyzed for the amount of ET-1 by enzyme-linked immunosorbant assay (Elisa).

[2] = system: ECE; details: ECE in vitro, cited from earlier work
[3] = system: pressor response of big ET; details: cited from earlier work
[4] = system: vasoconstrictor effects evoked by big ET-1; details: anaesthetized pigs; cited from earlier work
[5] = system: pressor response of big ET-1; details: ganglion-blocked anesthetized rats; cited from earlier work
[6] = system: effects of big ET-1 in the microvasculature; details: anesthetized hamsters; cited from earlier work
[7] = system: lethality induced by big ET-1; details: in vivo; cited from earlier work
[8] = system: effects of intracisternal big ET-1; details: anesthetized dogs; cited from earlier work
[9] = system: hemodynamic actions of big ET-1; details: rat brain; cited from earlier work
[10] = system: pulmonary vascular resistance; details: young piglets; cited from earlier work
[11] = system: isolated rat hearts; details: cited from earlier work; for preischemic increase in coronary perfusion pressure induced by big ET-1 and its preischemic effect: phosphoramidon (IC50 =100 μM), BQ-123 0.3 μM; for time to contracture in globally ischemic rat hearts: 30 pMol ET-1 or 10 nMol big ET-1 pretreatment; for IC50: isolated rat hearts, read-out: IC50, reduction of coronary flow
[12] = system: infarct size; details: IV, 24 hour postischemia; cited from earlier work
[13] = system: ET receptor; details: allergic sheep; cited from earlier work
[14] = system: ETA; details: endotoxic shock, mouse; cited from earlier work
[15] = system: gastric mucosa; details: 50 to 500 pmol/kg into the left gastric artery; cited from earlier work
[16] = system: SHR; details: IV infusion; cited from earlier work
[17] = system: vascular strips; details: cited from earlier work
[18] = in vivo; cited from earlier work
[19] = system: endothelin; details: rats; cited from earlier work

IC50 [1]: 1300 nM
Compound: CCCCCCCc1nc(-c2nc(C(=O)O)cc(OC)c2OC)cs1 [Example 3, 6-(2-Heptyl-thiazol-4-yl)-4,5-dimethoxy-pyridine-2-carboxylic acid]

Compound: CC(C)C[C@H](NP(=O)(O)O[C@@H]1O[C@@H](C)[C@H](O)[C@@H](O)[C@H]1O)C(=O)N[C@@H](Cc1c[nH]c2ccccc12)C(=O)O [phosphoramidon]
IC50 [2]: ~1000 nM
IC50 ([2]; listed as Phosphoramidon): 1000 nM
inhibition of effects of ET-1 (versus big ET-1) ([3]; in all cases (studies cited in b8)): inhibited the effects of big ET-1 and not ET-1
block of the pressor response of big ET ([3]; micromolar concentrations, in vitro and in vivo): block the pressor response of big ET both in vitro and in vivo
plasma ET-1 level [4]: did not have any effect on the plasma ET-1 level
vasoconstrictor effects evoked by intravenous injections of big ET-1 [4]: inhibit vasoconstrictor effects evoked by intravenous injections of big ET-1
pressor response of big ET-1 [5]: blocked by phosphoramidon in a dose-dependent manner
effects of big ET-1 in the microvasculature [6]: inhibit the effects of big ET-1 in the microvasculature of anesthetized hamsters
lethality induced by intravenous infusion of big ET-1 [7]: suppress the lethality induced by the intravenous infusion of big ET-1
decreased basilar artery caliber and elevated systemic arterial pressure by intracisternal big ET-1 [8]: These effects were blocked by phosphoramidon
inhibition of hemodynamic actions of big ET-1 [9]: phosphoramidon sensitive inhibition of hemodynamic actions of big ET-1 in rat brain
elevated pulmonary vascular resistance after cardiopulmonary bypass [10]: reduce elevated pulmonary vascular resistance after cardiopulmonary bypass
preischemic increase in coronary perfusion pressure induced by big ET-1 and its preischemic effect [11]: abolished the preischemic increase in coronary perfusion pressure induced by big ET-1 as well as its preischemic effect
infarct size [12]: significantly reduce infarct size 24 hour postischemia

Compound: CC(C)C[C@@H]1NC(=O)[C@@H](C(C)C)NC(=O)[C@@H]2CCCN2C(=O)[C@@H](CC(=O)O)NC(=O)[C@@H](Cc2c[nH]c3ccccc23)NC1=O [BQ-123] (cyclo(L[dW][dD]P[dV]))
ET-1-induced bronchoconstriction and tracheal smooth muscle contraction [13]: block ET-1-induced bronchoconstriction and tracheal smooth muscle contraction in allergic sheep
survival rate [14]: significantly increased the survival rate in this model
preischemic increase in coronary perfusion pressure induced by big ET-1 and its preischemic effect [11]: abolished the preischemic increase in coronary perfusion pressure induced by big ET-1 as well as its preischemic effect

IC50 [1]: 5000 to 10000 nM
Compound: COc1cc(C(=O)O)nc(-c2cscn2)c1OC [Example 6, 6-(Thiazol-4-yl)-4,5-dimethoxy-pyridine-2-carboxylic acid]

IC50 [1]: 1000 to 5000 nM
Compound: CNc1nc(-c2nc(C(=O)O)cc(OC)c2OC)cs1 [Example 5, 6-(2-N-Methylamino-thiazol-4-yl)-4,5-dimethoxy-pyridine-2-carboxylic acid]

Compound: ET-1: a potent vasoconstrictor, is a 21 amino acid bicyclic peptide
gastric mucosal hemorrhagic change [15]: induced gastric mucosal hemorrhagic change in a dose-dependent manner
tissue type plasminogen activator release and platelet activating formation [15]: increased the tissue type plasminogen activator release and platelet activating formation
time to contracture in globally ischemic rat hearts [11]: significantly reduced the time to contracture
IC50 [11]: 0.012 nM

Compound: O=P(O)(O)CNC(Cc1ccc(-c2ccccc2)cc1)c1nn[nH]n1 (stereo not drawn) [CGS 26303]
antihypertensive responses in the SHR [16]: effective at lowering the antihypertensive responses in the SHR

Compound: Big ET: 38 (human) or 39 (porcine) amino acid peptide known as big endothelin or proendothelin (CSCSSLMDKECVYFCHLDIIWVNTPEHVVPYGLGSPRS; ends and bridges not checked; cysteine pairing not given here; UniProt P05305 53-90, looked up)
potency relative to ET-1 in inducing contractile activity [17]: 1%
potency relative to ET-1 at raising blood pressure [18]: equally potent in vivo at raising blood pressure
time to contracture in globally ischemic rat hearts [11]: significantly reduced the time to contracture
IC50 [11]: 2 nM

Compound: COc1cccc(Oc2c(NS(=O)(=O)c3ccc(C(C)(C)C)cc3)ncnc2OCCO)c1 [RO 46-2005]
efficacy in acute renal ischemia and subarachnoid hemorrhage [19]: effective in models of acute renal ischemia and subarachnoid hemorrhage in rats

IC50 [1]: 1900 nM
Compound: COc1cc(C(=O)O)nc(-c2csc(C)n2)c1OC [Example 2, 6-(2-Methyl-thiazol-4-yl)-4,5-dimethoxy-pyridine-2-carboxylic acid]

IC50 [1]: 1000 to 5000 nM
Compound: COc1cc(C(=O)O)nc(-c2csc(N)n2)c1OC [Example 4, 6-(2-Amino-thiazol-4-yl)-4,5-dimethoxy-pyridine-2-carboxylic acid]

IC50 [1]: 1300 nM
Compound: COc1cc(C(=O)O)nc(-c2csc(CCCCCC(C)O)n2)c1OC (stereo not drawn) [Example 1, 6-[2-(6-Hydroxy-heptyl)-thiazol-4-yl]-4,5-dimethoxy-pyridine-2-carboxylic acid]
